Literature values as cited in US9668974B2, “Depot formulations of a local anesthetic and methods for preparation thereof” (PAINREFORM LTD., priority 2012, dated 2017).

Conditions: in vivo

In the case of `CCCN1CCCC[C@H]1C(=O)Nc1c(C)cccc1C` [ropivacaine], the Toxic threshold (plasma ropivacaine) is given as 0.6 µg/mL.
